Measurements taken from patent US20200046654A1, “BUPROPION AND PHARMACEUTICAL COMPOSITION FOR TREATING CANCER AND METHOD FOR INHIBITING MIGRATION OF TUMOR CELLS” (NATIONAL CHIAO TUNG UNIVERSITY, priority 2018, published 2020).

Legend:
[1] = test system: MDA-MB-231 cells; assay: cell invasion assay (Matrigel invasion chambers); assay type: cell-based, human; conditions: 48 hours, with or without nicotine
Experimental: The inhibitory effect of bupropion on tumor invasion was tested by cell invasion assay. MDA-MB-231 cells were plated on to Matrigel invasion chambers in serum-starved medium, and the cells in the lower chamber were cultured using normal medium. The media in both of the upper and the lower chambers contained 0.1 μM bupropion, or 1 μM bupropion, and the cells were treated with or without (control group) nicotine. After the cells were cultured for 48 hours, the upper chambers were washed with PBS and fixed with formaldehyde for 30 minutes. The cells in the upper chambers were stained with crystal violet for two hours, and photos were acquired under a microscope. The numbers of invading tumor cells were calculated by ImageJ software.

[2] = test system: MDA-MB-231 cells; assay: cell migration assay, MDA-MB-231; assay type: cell-based, human; conditions: 12 hours, with or without nicotine
Experimental: (§1) MDA-MB-231 cells well treated with or without (control group) nicotine, DMSO, 0.1 μM, and 1 μM bupropion were then respectively added to the cells. Twelve hours after bupropion addition, the cells were fixed with formaldehyde, and stained with PI for 30 minutes; then photos of the cells were acquired. The numbers of migrating cells were calculated by imageJ software. This assay was repeated 3 times.

[3] = test system: MDA-MB-453; assay: cell migration assay, MDA-MB-453; assay type: cell-based, human
Experimental: as §1
In addition, a HER2 overexpression subtype of a breast cancer cell line, MDA-MB-453, was used to test the inhibitory effect of bupropion on tumor migration. The experimental method was the same as the cell migration assay of Example 7 above.

[4] = test system: MDA-MB-231 cells with a luminescence reporter gene; assay: MDA-MB-231-based spontaneous pulmonary metastasis animal model; assay type: in vivo, SCID mice; conditions: two months; for number of the migrating tumor cells to the lungs (photon flux): bupropion i.p. three times a week, 100 or 200 μg per kilogram
Experimental: MDA-MB-231 cells with a luminescence reporter gene were implanted into severe combined immunodeficiency (SCID) mice. The nicotine treatment was carried out by adding nicotine (10 μg/ml) to the drinking water of the mice. The mice were injected intraperitoneally with bupropion three times a week at doses of 100 or 200 μg per kilogram. After two months, the mice were sacrificed and the lungs were dissected. IVIS was used to take the luminescence images of the lungs. The photon influx measured in the images represents the metastasis level of the mouse tumor cells to the lung tissue.

[5] = molecular target: CHRNA9/CFP and ERBB2/YFP (Homo sapiens, UniProt Q9UGM1)
Sequence of CHRNA9/CFP and ERBB2/YFP (Q9UGM1 23-479): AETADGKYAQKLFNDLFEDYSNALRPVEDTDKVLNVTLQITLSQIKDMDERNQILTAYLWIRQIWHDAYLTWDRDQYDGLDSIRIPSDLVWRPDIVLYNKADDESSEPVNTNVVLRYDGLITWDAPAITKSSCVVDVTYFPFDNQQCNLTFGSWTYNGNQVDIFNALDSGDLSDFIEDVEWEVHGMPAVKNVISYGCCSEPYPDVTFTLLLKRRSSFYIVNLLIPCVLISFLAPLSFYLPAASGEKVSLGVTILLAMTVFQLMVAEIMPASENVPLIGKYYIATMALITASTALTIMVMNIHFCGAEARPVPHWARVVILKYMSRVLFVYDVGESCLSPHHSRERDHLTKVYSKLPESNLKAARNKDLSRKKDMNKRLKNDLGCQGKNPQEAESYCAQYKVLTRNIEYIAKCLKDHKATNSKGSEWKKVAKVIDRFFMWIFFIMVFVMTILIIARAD
Excerpt: In order to further investigate the interaction between CHRNA9 and ERBB2 ex vivo, a plasmid expressing CHRNA9/CFP and a plasmid expressing ERBB2/YFP were constructed and then co-transfected into MDA-MB-231 cells. FRET and fluorescence-lifetime imaging microscopy (FLIM) were used.
To further clarify whether CHRNA9 and ERBB2 are dissociated after nicotine exposure, two-photon FLIM was used to monitor the FRET activity between CHRNA9/CFP and ERBB2/YFP. The plasmids expressing CHRNA9/CFP and the plasmids expressing ERBB2/YFP were co-transfected into MDA-MB-231 cells. After two days, the cells were treated with 10 μM nicotine.

[6] = molecular target: CHRNA9/ERBB2 complex (Homo sapiens, UniProt Q9UGM1); conditions: oral nicotine, at 30 minutes of exposure, vs before exposure
Sequence of CHRNA9/ERBB2 complex (Q9UGM1 23-479, one chain of several): as the sequence (Q9UGM1 23-479) above
Excerpt: Split luciferase complementation assay was used to investigate the association and dissociation between CHRNA9 and ERBB2.
The N terminal (Nluc) and the C terminal (Cluc) of luciferase were respectively constructed with ERBB2 and CHRNA9 to form the plasmids expressing the fusion proteins. When ERBB2 and CHRNA9 interact with each other, the Nluc and the Cluc are also close to each other to assemble together, and present luciferase activity. Therefore, after Luciferin addition, luminescence can be generated. When ERBB2 and CHRNA9 dissociate from each other, the Nluc and Cluc also dissociate from each other; therefore, no luciferase activity exists.
Then a xenograft animal model was used. Plasmids expressing ERBB2/Nluc fusion protein and plasmids expressing CHRNA9/Cluc fusion protein were co-transfected into MDA-MB-231 cells, then the cells expressing the fusion proteins were injected into the mammary pads of nude mice.

SMILES	invasion of MDA-MB-231 cells ([1]; 0.1 μM bupropion)	invasion of MDA-MB-231 cells ([1]; 1 μM bupropion)	migration of MDA-MB-231 cells ([2]; 0.1 μM bupropion)	migration of MDA-MB-231 cells ([2]; 1 μM bupropion)	migration of MDA-MB-453 cells ([3]; 0.1 μM bupropion)	migration of MDA-MB-453 cells ([3]; 1 μM bupropion)	number of the migrating tumor cells to the lungs (photon flux) ([4]; nicotine-free mice)	number of the migrating tumor cells to the lungs (photon flux) ([4]; nicotine-treated mice)	FRET activity on the cell membrane between CHRNA9/CFP and ERBB2/YFP ([5]; after 10 μM nicotine exposure, MDA-MB-231 cells)	FRET activity on the membrane after removal of nicotine ([5]; cells washed with PBS to remove nicotine)	number of the metastatic tumor cells in the lung tissues (photon flux) ([4]; nicotine 10 μg/ml in drinking water)	photon influx (luciferase activity in tumor region) relative to control group [6]
CC(NC(C)(C)C)C(=O)c1cccc(Cl)c1 (stereo not drawn) [bupropion]	significantly inhibited	significantly inhibited	significantly inhibited	significantly inhibited	significantly inhibited	significantly inhibited	significantly decreased	significantly decreased				
CN1CCCC1c1cccnc1 (stereo not drawn) [nicotine]									gradually decreased	gradually recovered to the baseline	significantly increased	26.3%
